This note sets out measurements from ChEMBL document CHEMBL5120780, “Novel indazole skeleton derivatives containing 1,2,3-triazole as potential anti-prostate cancer drugs” (Bioorg Med Chem Lett, 2022).

Data set [1] concerns PC-3. Put plainly: Antiproliferative activity against human PC-3 cells assessed as inhibition of cell growth incubated for 72 hrs by MTT assay. In kind it is functional, cell-based. To be noted: PC-3, 72 h. (Formazan colour is commonly taken as a measure of viable cells.)
The subject of data set [2] is MCF7. Kind of data set: Antiproliferative activity against human MCF7 cells assessed as inhibition of cell growth incubated for 72 hrs by MTT assay. In kind it is functional, cell-based. To be noted: MCF7, 72 h.
In data set [3] the test system is MGC-803. Kind of data set: Antiproliferative activity against human MGC-803 cells assessed as inhibition of cell growth incubated for 72 hrs by MTT assay. It is filed as functional, cell-based. To be noted: MGC-803, 72 h.
For data set [4], the system named is HepG2. Kind of data set: Antiproliferative activity against human HepG2 cells assessed as inhibition of cell growth incubated for 72 hrs by MTT assay. In kind it is functional, cell-based. To be noted: HepG2, 72 h.
The nature of data set [5]: Selectivity ratio of IC50 for cytotoxicity against human WPMY-1 cells to IC50 for antiproliferative activity against human PC-3 cells. In kind it is toxicity, cell-based. To be noted: WPMY-1 cells and PC-3 cells, read-out: Ratio IC50.
A short description of data set [6]: Toxicity in wild type KM mouse assessed as behavioral abnormalities at 2 g/Kg, IG measured for 2 weeks. To be noted: in vivo, po, 2000 mg/kg, 336 h.
For data set [7], the system named is PC-3. Kind of data set: Inhibition of colony formation in human PC-3 cells incubated for 7 days by crystal violet staining based analysis. In kind it is functional, cell-based. To be noted: dose 2-8 µM, time 7.0 day, DDE = dose-dependent effect.
Data set [8] can be described thus: Toxicity in wild type KM mouse assessed as animal survival at 2 g/Kg, IG measured for 2 weeks. To be noted: in vivo, po, 2000 mg/kg, 336 h.
Data set [9] in a line: Toxicity in wild type KM mouse assessed as change in heart morphology at 2 g/Kg, IG measured for 2 weeks by H and E staining based microscopic analysis. To be noted: in vivo, po, 2000 mg/kg, 336 h. It is filed as tissue-based.
Data set [10] is described as follows: Cytotoxicity against human WPMY-1 cells assessed as inhibition of cell growth incubated for 72 hrs by MTT assay. It is filed as toxicity, cell-based.
Data set [11] in a line: Toxicity in wild type KM mouse assessed as change in prostate morphology at 2 g/Kg, IG measured for 2 weeks by H and E staining based microscopic analysis. To be noted: in vivo, po, 2000 mg/kg, 336 h.
Data set [12] can be described thus: Toxicity in wild type KM mouse assessed as change in kidney morphology at 2 g/Kg, IG measured for 2 weeks by H and E staining based microscopic analysis. To be noted: in vivo, po, 2000 mg/kg, 336 h.
Data set [13] in a line: Toxicity in wild type KM mouse assessed as change in liver morphology at 2 g/Kg, IG measured for 2 weeks by H and E staining based microscopic analysis. It is filed as tissue-based. To be noted: in vivo, po, 2000 mg/kg, 336 h.
Data set [14] in a line: Toxicity in wild type KM mouse assessed as change in lung morphology at 2 g/Kg, IG measured for 2 weeks by H and E staining based microscopic analysis. To be noted: in vivo, po, 2000 mg/kg, 336 h.
In data set [15] the test system is PC-3. Put plainly: Induction of cell cycle arrest in human PC-3 cells assessed as accumulation of cells in G2/M phase at 8 uM incubated for 24 hrs by RNase/PI staining based flow cytometry analysis (reference value: 22.17%). It is filed as functional. (In general: Flow cytometry measures light scatter and fluorescence of single cells or particles in a stream.)

Data set [16] is described as follows: Toxicity in wild type KM mouse assessed as change in spleen morphology at 2 g/Kg, IG measured for 2 weeks by H and E staining based microscopic analysis. To be noted: in vivo, po, 2000 mg/kg, 336 h.

A value given as a limit tells only on which side of the number the result lay.

Broadly, the IC50 is the concentration that gives 50% inhibition. For the compound `CC(C)n1ncc2c(C(=O)NCc3cn(-c4cccc(F)c4)nn3)cccc21`, the IC50 in data set [1] was 36.1 µM; in data set [2], > 40 µM; in [3] it was > 40 µM; in [4], > 40 µM.
For `CC(C)n1ncc2c(C(=O)NCc3cn(Cc4ccc(C(C)(C)C)cc4)nn3)cccc21`, the IC50 was 8.89 µM in [1], > 40 µM in data set [2], > 40 µM in [3] and > 40 µM in [4].
As to `CC(C)n1ncc2c(C(=O)Nc3cccnc3)cccc21`, the IC50 in [1], in [2], in data set [3] and in data set [4] was > 40 µM each time.
Consider `COc1ccc(Cn2cc(CNC(=O)c3cccc4c3cnn4C(C)C)nn2)cc1`, for which the half-maximal inhibitory concentration (IC50) was 34 µM in [1], > 40 µM in data set [2], > 40 µM in [3] and > 40 µM in data set [4].
Turning to `Cc1ccc(-n2cc(CNC(=O)c3cccc4c3cnn4C(C)C)nn2)cc1`, the 50% inhibitory concentration (IC50) in data set [1] was 39 µM; in data set [2], > 40 µM; in data set [3], > 40 µM; in [4] it was > 40 µM.
Take `CC(C)n1ncc2c(C(=O)NCc3cn(-c4ccc([N+](=O)[O-])cc4)nn3)cccc21`: the IC50 in [1], in data set [2], in data set [3] and in data set [4] was > 40 µM each time.
`CC(C)n1ncc2c(C(=O)NCc3cn(Cc4ccccc4)nn3)cccc21`: the selectivity ratio in data set [5] came to 4.42. Further, the Activity entry in [6], in [8], in data set [9], in data set [11], in data set [12] and in data set [13] was “Non-Toxic” each time. For the same compound, the Activity result is reported as “Non-Toxic” in [14], 72.25% in [15] and “Non-Toxic” in [16]. The IC50 in data set [1] was 4.42 µM; in data set [2], 9.17 µM; in data set [3] it was 14.3 µM; in [4], 13.7 µM. Also, the inhibition entry in data set [7] was “Dde”. Further, the IC50 at 72 h in data set [10] worked out at 20.3 µM.
For `CC(C)n1ncc2c(C(=O)Nc3ccccc3)cccc21`, the 50% inhibitory concentration (IC50) in data set [1] is 11.9 µM; in data set [2], 19.7 µM; in data set [3], 38.5 µM; in [4], 23.7 µM.
The like results for `CC(C)n1ncc2c(C(=O)NCc3cn(-c4ccc(I)cc4)nn3)cccc21` were, in that order, > 40 µM, > 40 µM, > 40 µM and > 40 µM.
For `CNC(=O)c1ccc(N2C(=S)N(c3ccc(C#N)c(C(F)(F)F)c3)C(=O)C2(C)C)cc1F` [ENZALUTAMIDE], the selectivity ratio in data set [5] came to 2.49. Besides, the IC50 in [1] is 24.6 µM. Moreover, the half-inhibitory concentration (IC50) at 72 h in data set [10] was 61.4 µM.
As to `CC(C)n1ncc2c(C(=O)NC3CCCC3)cccc21`, the IC50 in data set [1] was 19.4 µM; in [2], > 40 µM; in [3] it was > 40 µM; in data set [4], > 40 µM.
Take `Cc1ccccc1-n1cc(CNC(=O)c2cccc3c2cnn3C(C)C)nn1`: the IC50 in data set [1] was 19.2 µM; in [2], > 40 µM; in [3], > 40 µM; in [4] it was > 40 µM.
On to `CC(C)n1ncc2c(C(=O)NCCN3CCN(C)CC3)cccc21`, for which the IC50 in data set [1], in data set [2], in data set [3] and in data set [4] was > 40 µM throughout.
As to `CC(C)n1ncc2c(C(=O)NCCN(C)C)cccc21`, the IC50 in [1], in [2], in data set [3] and in [4] was > 40 µM throughout.
For `CC(C)n1ncc2c(C(=O)NCCN3CCCCC3)cccc21`, the IC50 in data set [1], in data set [2], in data set [3] and in data set [4] was > 40 µM throughout.
With `Cc1cccc(-n2cc(CNC(=O)c3cccc4c3cnn4C(C)C)nn2)c1`, the IC50 is 32.3 µM in data set [1], > 40 µM in data set [2], > 40 µM in data set [3] and > 40 µM in [4].
For the compound `CC(C)n1ncc2c(C(=O)NCc3cn(-c4ccccc4)nn3)cccc21`, the IC50 was 25.9 µM in [1], > 40 µM in [2], > 40 µM in data set [3] and > 40 µM in data set [4].
As for `CC(C)n1ncc2c(C(=O)NCc3cn(Cc4ccc(C#N)cc4)nn3)cccc21`, the IC50 in data set [1] is 18.2 µM; in [2], > 40 µM; in data set [3], 39.6 µM; in data set [4] it was > 40 µM.
For `Cc1ccc(-n2cc(CNC(=O)c3cccc4c3cnn4C(C)C)nn2)cc1C`, the IC50 is 23.4 µM in data set [1], > 40 µM in data set [2], > 40 µM in [3] and > 40 µM in data set [4].
`CCc1ccc(-n2cc(CNC(=O)c3cccc4c3cnn4C(C)C)nn2)cc1`: the IC50 was 26.6 µM in data set [1], > 40 µM in data set [2], > 40 µM in [3] and > 40 µM in data set [4].
As to `CC(C)n1ncc2c(C(=O)NCc3cn(-c4ccc(C(F)(F)F)cc4)nn3)cccc21`, the IC50 was 38.6 µM in data set [1], > 40 µM in data set [2], > 40 µM in data set [3] and > 40 µM in data set [4].
With `CC(C)n1ncc2c(C(=O)NCc3cn(-c4ccc(F)cc4)nn3)cccc21`, the IC50 in data set [1], in [2], in data set [3] and in data set [4] was > 40 µM each time.
As to `Cc1ccc(-n2cc(CNC(=O)c3cccc4c3cnn4C(C)C)nn2)c(C)c1`, the IC50 in [1] was 10.6 µM; in [2], > 40 µM; in data set [3], > 40 µM; in data set [4], > 40 µM.
`O=c1[nH]cc(F)c(=O)[nH]1` [FLUOROURACIL]: the IC50 in data set [2] turned out to be 15.1 µM; in [4] it was 11.7 µM.
On to `CC(C)n1ncc2c(C(=O)NCc3cn(Cc4ccc(C(F)(F)F)cc4)nn3)cccc21`, for which the IC50 in data set [1] was 23.9 µM; in [2] it was > 40 µM; in data set [3], > 40 µM; in data set [4], > 40 µM.
Turning to `CC(C)n1ncc2c(C(=O)NCc3cn(-c4ccccc4F)nn3)cccc21`, the IC50 in [1], in data set [2], in data set [3] and in data set [4] was > 40 µM each time.
For the compound `CC(C)n1ncc2c(C(=O)NCc3ccccc3)cccc21`, the IC50 was 15.2 µM in data set [1], > 40 µM in data set [2], > 40 µM in [3] and > 40 µM in [4].
Take `CC(C)n1ncc2c(C(=O)NCCN3CCCC3)cccc21`: the IC50 in data set [1], in data set [2], in data set [3] and in [4] was > 40 µM each time.
Consider `CC(C)n1ncc2c(C(=O)NCc3cn(-c4cccc(Br)c4)nn3)cccc21`, for which the IC50 in [1] is 33.7 µM; in [2] it was > 40 µM; in [3], > 40 µM; in data set [4], > 40 µM.
`COc1ccc(-n2cc(CNC(=O)c3cccc4c3cnn4C(C)C)nn2)cc1`: the IC50 was 34.3 µM in [1], > 40 µM in [2], > 40 µM in data set [3] and > 40 µM in [4].
